Source: patent US20220151962A1, “NOVEL INHIBITORS OF HISTONE DEACETYLASE 10” (Deutsches Krebsforschungszentrum, priority 2019, published 2022)

What was measured:
HDAC3/NcoR2 complex = target: T1, HDAC3/NcoR2 complex (Homo sapiens, UniProt O15379); experiment: HDAC-Glo I/II assay, HDAC3/NcoR2 complex; assay type: biochemical; conditions: recombinant human HDAC3/NcoR2 complex; for IC50: read-out: pIC50 HDAC3 Glo (converted)
T1 construct: purchased BPS Bioscience 50003

HDAC8 = target: T2, HDAC8 (Homo sapiens, UniProt Q9BY41); experiment: HDAC-Glo I/II assay, HDAC8; assay type: biochemical; parameters: purchased BPS Bioscience 50008; conditions: recombinant human HDAC8, HDAC-Glo; for IC50: read-out: pIC50 HDAC8 Glo (converted)
T2 sequence (Q9BY41 1-377): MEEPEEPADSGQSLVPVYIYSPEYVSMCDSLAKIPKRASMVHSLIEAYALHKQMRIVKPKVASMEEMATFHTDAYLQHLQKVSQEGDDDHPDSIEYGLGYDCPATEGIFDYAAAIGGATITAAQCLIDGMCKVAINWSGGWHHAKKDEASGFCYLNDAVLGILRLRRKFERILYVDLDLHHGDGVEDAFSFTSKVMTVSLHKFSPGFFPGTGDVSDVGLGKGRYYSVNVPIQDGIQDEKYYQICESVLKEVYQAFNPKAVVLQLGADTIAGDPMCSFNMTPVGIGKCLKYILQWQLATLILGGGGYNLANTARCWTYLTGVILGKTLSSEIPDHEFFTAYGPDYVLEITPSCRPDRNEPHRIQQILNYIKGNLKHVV

HDAC2 = target: T3, HDAC2 (Homo sapiens, UniProt Q92769); experiment: HDAC-Glo I/II assay, HDAC2; assay type: biochemical; conditions: recombinant human HDAC2, HDAC-Glo; for IC50: read-out: pIC50 HDAC2 Glo (converted)
T3 construct: purchased BPS Bioscience 50002
T3 sequence (Q92769 whole entry): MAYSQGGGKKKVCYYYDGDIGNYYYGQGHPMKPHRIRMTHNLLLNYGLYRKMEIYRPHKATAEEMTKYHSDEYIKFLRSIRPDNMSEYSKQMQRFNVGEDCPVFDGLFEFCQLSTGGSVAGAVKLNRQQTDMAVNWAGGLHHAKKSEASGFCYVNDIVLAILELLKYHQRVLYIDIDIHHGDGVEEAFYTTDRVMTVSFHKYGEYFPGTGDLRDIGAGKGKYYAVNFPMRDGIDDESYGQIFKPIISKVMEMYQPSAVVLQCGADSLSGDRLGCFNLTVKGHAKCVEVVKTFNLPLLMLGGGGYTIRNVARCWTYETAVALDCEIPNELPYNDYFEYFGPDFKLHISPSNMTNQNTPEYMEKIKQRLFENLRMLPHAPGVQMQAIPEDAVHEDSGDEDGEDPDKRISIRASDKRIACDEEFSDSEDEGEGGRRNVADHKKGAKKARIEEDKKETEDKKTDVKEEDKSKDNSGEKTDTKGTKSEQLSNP

HDAC6 = target: T4, HDAC6 (Homo sapiens, UniProt Q9UBN7); experiment: HDAC-Glo I/II assay, HDAC6; assay type: biochemical; conditions: recombinant human HDAC6, HDAC-Glo; read-out: pIC50 HDAC6 Glo (converted)
T4 construct: purchased BPS Bioscience 50006
T4 sequence (Q9UBN7 1-1215): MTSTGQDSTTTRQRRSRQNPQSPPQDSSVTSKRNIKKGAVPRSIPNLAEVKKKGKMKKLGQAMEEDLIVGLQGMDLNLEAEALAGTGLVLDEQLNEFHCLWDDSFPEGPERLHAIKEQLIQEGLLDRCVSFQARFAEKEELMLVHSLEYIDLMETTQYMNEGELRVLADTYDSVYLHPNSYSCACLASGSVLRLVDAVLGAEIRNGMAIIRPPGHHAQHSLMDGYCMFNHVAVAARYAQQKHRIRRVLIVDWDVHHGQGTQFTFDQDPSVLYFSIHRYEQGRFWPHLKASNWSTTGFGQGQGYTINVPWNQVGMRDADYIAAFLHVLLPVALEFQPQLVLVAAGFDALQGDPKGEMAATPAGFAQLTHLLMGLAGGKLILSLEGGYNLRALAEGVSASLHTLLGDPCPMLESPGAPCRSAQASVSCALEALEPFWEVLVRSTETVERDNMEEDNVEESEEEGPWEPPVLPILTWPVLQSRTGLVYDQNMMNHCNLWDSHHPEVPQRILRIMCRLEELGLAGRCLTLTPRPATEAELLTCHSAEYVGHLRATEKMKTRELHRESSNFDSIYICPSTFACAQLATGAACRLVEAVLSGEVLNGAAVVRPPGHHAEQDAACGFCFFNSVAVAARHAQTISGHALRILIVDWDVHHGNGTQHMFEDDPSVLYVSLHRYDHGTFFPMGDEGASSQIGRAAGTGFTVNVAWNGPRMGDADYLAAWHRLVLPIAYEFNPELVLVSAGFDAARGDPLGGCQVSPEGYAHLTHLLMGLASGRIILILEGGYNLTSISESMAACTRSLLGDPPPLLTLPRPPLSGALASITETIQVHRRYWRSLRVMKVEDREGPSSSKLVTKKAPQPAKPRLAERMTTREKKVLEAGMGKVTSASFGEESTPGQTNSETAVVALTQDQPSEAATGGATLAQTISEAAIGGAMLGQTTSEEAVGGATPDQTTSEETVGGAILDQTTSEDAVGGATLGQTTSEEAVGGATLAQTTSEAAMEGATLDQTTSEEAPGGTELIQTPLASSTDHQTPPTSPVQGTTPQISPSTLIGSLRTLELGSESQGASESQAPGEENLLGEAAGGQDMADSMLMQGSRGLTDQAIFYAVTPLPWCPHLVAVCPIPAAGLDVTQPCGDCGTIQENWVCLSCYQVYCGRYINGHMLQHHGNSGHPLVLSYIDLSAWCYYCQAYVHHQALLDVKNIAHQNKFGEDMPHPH

TwinStrep-GST-HDAC10 = target: T5, TwinStrep-GST-HDAC10 (Homo sapiens, UniProt Q969S8); experiment: HDAC10 TR-FRET assay (Tubastatin-AF647-Tracer displacement); assay type: binding; conditions: TR-FRET, 60 min at rt; for IC50: read-out: pIC50 HDAC10 FRET (converted)
T5 construct: made in house; host or cells: Sf21 insect cells (baculovirus, pFastBac1)
T5 sequence (Q969S8 1-669): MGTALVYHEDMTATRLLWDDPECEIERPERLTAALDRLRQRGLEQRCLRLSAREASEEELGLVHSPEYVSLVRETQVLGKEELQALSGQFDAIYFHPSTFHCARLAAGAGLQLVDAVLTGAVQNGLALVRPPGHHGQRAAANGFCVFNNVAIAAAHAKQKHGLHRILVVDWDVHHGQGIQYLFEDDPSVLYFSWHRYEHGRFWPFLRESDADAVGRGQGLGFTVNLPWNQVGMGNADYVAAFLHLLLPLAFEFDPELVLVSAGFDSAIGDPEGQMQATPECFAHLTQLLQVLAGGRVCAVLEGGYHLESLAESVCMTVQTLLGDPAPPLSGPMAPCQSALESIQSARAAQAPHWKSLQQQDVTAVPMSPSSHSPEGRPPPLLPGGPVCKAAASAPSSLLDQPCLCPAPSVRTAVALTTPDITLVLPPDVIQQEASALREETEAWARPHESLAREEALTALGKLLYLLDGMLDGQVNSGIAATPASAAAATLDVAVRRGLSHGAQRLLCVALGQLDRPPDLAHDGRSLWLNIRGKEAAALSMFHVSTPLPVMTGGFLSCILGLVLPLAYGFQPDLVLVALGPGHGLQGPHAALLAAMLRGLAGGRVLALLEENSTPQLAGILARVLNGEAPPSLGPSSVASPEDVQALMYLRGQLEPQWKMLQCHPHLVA

HDAC1 = target: T6, HDAC1 (Homo sapiens, UniProt Q13547); experiment: HDAC-Glo I/II assay, HDAC1; assay type: biochemical; conditions: recombinant human HDAC1, HDAC-Glo; for IC50: read-out: pIC50 HDAC1 Glo (converted)
T6 construct: purchased BPS Bioscience 50051
T6 sequence (Q13547 whole entry): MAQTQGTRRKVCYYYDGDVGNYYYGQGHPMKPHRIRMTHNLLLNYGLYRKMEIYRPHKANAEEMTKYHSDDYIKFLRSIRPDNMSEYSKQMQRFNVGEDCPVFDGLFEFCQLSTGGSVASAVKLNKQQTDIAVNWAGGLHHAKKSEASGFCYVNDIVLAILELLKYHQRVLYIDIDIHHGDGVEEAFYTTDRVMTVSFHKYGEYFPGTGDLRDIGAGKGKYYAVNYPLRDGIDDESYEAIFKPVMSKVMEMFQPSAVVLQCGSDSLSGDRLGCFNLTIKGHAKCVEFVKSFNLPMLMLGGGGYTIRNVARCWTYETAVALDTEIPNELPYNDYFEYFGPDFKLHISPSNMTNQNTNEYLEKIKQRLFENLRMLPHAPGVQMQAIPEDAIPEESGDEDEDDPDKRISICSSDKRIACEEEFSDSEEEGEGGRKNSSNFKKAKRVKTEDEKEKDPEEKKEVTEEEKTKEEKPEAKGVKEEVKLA

T1 sequence (O15379 whole entry): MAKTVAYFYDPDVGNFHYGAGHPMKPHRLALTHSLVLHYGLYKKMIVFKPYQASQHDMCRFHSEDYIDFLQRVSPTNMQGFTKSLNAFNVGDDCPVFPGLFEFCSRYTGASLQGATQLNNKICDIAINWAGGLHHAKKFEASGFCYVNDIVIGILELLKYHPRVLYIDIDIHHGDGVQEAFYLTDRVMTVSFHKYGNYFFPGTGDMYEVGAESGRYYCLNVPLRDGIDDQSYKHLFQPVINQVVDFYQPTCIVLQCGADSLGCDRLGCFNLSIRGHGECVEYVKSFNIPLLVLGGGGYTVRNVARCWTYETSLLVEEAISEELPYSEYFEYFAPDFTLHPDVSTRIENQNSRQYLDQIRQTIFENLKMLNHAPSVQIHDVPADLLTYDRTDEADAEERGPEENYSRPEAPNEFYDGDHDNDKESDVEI
T1 sequence (Q9Y618 395-489 partner limits assumed): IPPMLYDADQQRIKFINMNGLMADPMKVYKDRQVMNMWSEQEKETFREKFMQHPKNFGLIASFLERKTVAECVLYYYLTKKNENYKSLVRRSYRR

Compound	IC50 (HDAC3/NcoR2 complex)	IC50 (HDAC8)	IC50 (HDAC2)	IC50 (HDAC6)	IC50 (TwinStrep-GST-HDAC10)	IC50 (HDAC1)	pIC50 HDAC3 Glo (HDAC3/NcoR2 complex)	pIC50 HDAC2 Glo (HDAC2)	pIC50 HDAC10 FRET (TwinStrep-GST-HDAC10)	pIC50 HDAC1 Glo (HDAC1)	pIC50 HDAC8 Glo (HDAC8)
CN(CCCC(=O)NO)CCC(=O)Nc1ccccc1 [DKFZ-711]	79.4 µM	3.98 µM									
CN(CCCC(=O)NO)CCNC(=O)c1ccccc1Br [DKFZ-753, 2-Bromo-N-(2-((4-(hydroxyamino)-4-oxobutyl)(methyl)amino)ethyl)benzamide]	> 100 µM	7.94 µM	> 100 µM	6.31 µM	15.8 nM	25.1 µM					
CN(CCCC(=O)NO)CCNC(=O)c1ccc2ccccc2c1 [DKFZ-769, N-(2-((4-(Hydroxyamino)-4-oxobutyl)(methyl)amino)ethyl)-2-naphthamide]	~39.8 µM	1.58 µM	5.01 µM	1.26 µM	5.01 nM	2.51 µM					
CN(CCCC(=O)NO)CCNS(=O)(=O)c1ccccc1 [DKFZ-758, N-Hydroxy-4-(methyl(2-(phenylsulfonamido)ethyl)amino)butanamide]	> 100 µM	6.31 µM	> 100 µM	6.31 µM	31.6 nM	25.1 µM					
(1r,3r)-N-Hydroxy-3-((3-oxo-3-(phenylamino)propyl)amino)cyclobutanecarboxamide [DKFZ-759]							<4.0	<4.0	6.3	4.4	4.9
Cc1[nH]c2ccccc2c1C(=O)NCCN(C)CCCC(=O)NO [DKFZ-756, N-(2-((4-(Hydroxyamino)-4-oxobutyl)(methyl)amino)ethyl)-2-methyl-1H-indole-3-carboxamide]	~79.4 µM	5.01 µM	> 100 µM	1.58 µM	20 nM	7.94 µM					
CN(CCCC(=O)NO)CCNC(=O)c1ccc(O)c2ccccc12 [DKFZ-776, 4-Hydroxy-N-(2-((4-(hydroxyamino)-4-oxobutyl)(methyl)amino)ethyl)-1-naphthamide]	> 100 µM	2 µM	15.8 µM	0.631 µM	5.01 nM	7.94 µM					
CN(CCCC(=O)NO)CCCc1nc2ccccc2[nH]1 [DKFZ-805, 4-((3-(Benzimidazol-2-yl)propyl)(methyl)amino)-N-hydroxybutanamide]	> 100 µM	10 µM	50.1 µM	12.6 µM	7.94 nM	~39.8 µM					
CN(CCCC(=O)NO)CC(=O)Nc1ccccc1 [DKFZ-772, N-Hydroxy-4-(methyl(2-oxo-2-(phenylamino)ethyl)amino)butanamide]	> 100 µM	2.51 µM	31.6 µM			20 µM					
CN(CCCNC(=O)c1ccccc1)CCCC(=O)NO [DKFZ-806, N-(3-((4-(Hydroxyamino)-4-oxobutyl)(methyl)amino)propyl)benzamide]	> 100 µM	25.1 µM	79.4 µM	25.1 µM	20 nM	50.1 µM					
CN(CCCC(=O)NO)CCNC(=O)c1ccccc1 [DKFZ-728, N-(2-((4-(Hydroxyamino)-4-oxobutyl)(methyl)amino)ethyl)benzamide]	> 100 µM	15.8 µM	50.1 µM								
CCN(CCCC(=O)NO)CCC(=O)Nc1ccccc1 [DKFZ-714, 4-(Ethyl(3-oxo-3-(phenylamino)propyl)amino)-N-hydroxybutanamide]	~158 µM	5.01 µM	> 200 µM	6.31 µM		50.1 µM					
CN(CCCC(=O)NO)CCNC(=O)c1ccc(O)cc1 [DKFZ-751, 4-Hydroxy-N-(2-((4-(hydroxyamino)-4-oxobutyl)(methyl)amino)ethyl)benzamide]	> 100 µM	25.1 µM	> 100 µM	2 µM	7.94 nM	15.8 µM					
CN(CCCC(=O)NO)CCNC(=O)c1ccc(N)cc1 [DKFZ-752, 4-Amino-N-(2-((4-(hydroxyamino)-4-oxobutyl)(methyl)amino)ethyl)benzamide]	> 100 µM	20 µM	> 100 µM	3.98 µM	15.8 nM	15.8 µM					
(1s,3s)-N-Hydroxy-3-((3-oxo-3-(phenylamino)propyl)amino)cyclobutanecarboxamide [DKFZ-767]							~4.0	4.6	6.9	4.9	5.1
CN(CCCC(=O)NO)CCNC(=O)c1cccc(N)c1 [DKFZ-747, 3-Amino-N-(2-((4-(hydroxyamino)-4-oxobutyl)(methyl)amino)ethyl)benzamide]	> 100 µM	12.6 µM	> 100 µM	6.31 µM	39.8 nM	25.1 µM					
CN(CCCC(=O)NO)CCNC(=O)c1ccc(-c2ccccc2)cc1 [DKFZ-746, N-(2-((4-(Hydroxyamino)-4-oxobutyl)(methyl)amino)ethyl)-[1,1′-biphenyl]-4-carboxamide]	~31.6 µM	5.01 µM	~39.8 µM	3.16 µM	25.1 nM	2.51 µM					
CN(CCCC(=O)NO)CCNC(=O)c1ccc2cn[nH]c2c1 [DKFZ-754, N-(2-((4-(Hydroxyamino)-4-oxobutyl)(methyl)amino)ethyl)-1H-indazole-6-carboxamide]	> 100 µM	12.6 µM	> 100 µM	3.16 µM	7.94 nM	7.94 µM					
